According to article PMC3542062, “A phenyl-thiadiazolylidene-amine derivative ejects zinc from retroviral nucleocapsid zinc fingers and inactivates HIV virions” (Retrovirology, 2012):

What was measured:
HIV-1 IIIB [1] = experiment: MT-4/MTT-assay, protection against virus-induced cytopathic effect; format: cell-based; conditions: MT-4 cells, MTT, 5 days after infection
HIV-2 ROD [2] = experiment: as above; format: cell-based; conditions: Human immunodeficiency virus 2, MT4, 120 h; MT-4 cells, MTT, 5 days after infection
SIV Mac251 = experiment: as above; format: cell-based; conditions: MT-4 cells, MTT, 5 days after infection
[3] = Cytotoxicity in mock-infected MT-4 cells (MTT); format: cell-based; conditions: human, mock-infected MT-4 cells
HIV-2 ROD [4] = experiment: Anti-HIV activity in CEM cells (cytopathogenicity); format: cell-based; conditions: Human immunodeficiency virus 2, CCRF-CEM
[5] = Cytostatic activity, CEM cell proliferation; format: cell-based, human; conditions: human, CEM T-lymphocyte cells
NL4.3/WT = experiment: GFP-assay in Jurkat A72 (LTR-GFP) cells; format: cell-based, HIV-1; conditions: Human immunodeficiency virus 1, Jurkat, 72 h, read-out: EC50 NL4.3/WT
AZTR HIV-1 strain = experiment: GFP-assay in Jurkat A72 (LTR-GFP) cells; format: cell-based; conditions: Human immunodeficiency virus 1, Jurkat, 72 h, read-out: EC50 AZTR
ETH2220 subtype C = experiment: Virucidal assay on clinical isolates, titration on PBMCs; format: cell-based, HIV-1; conditions: 125 μM, 1 h 37°C, untreated control 64969
BZ163 subtype F = experiment: as above; format: cell-based, HIV-1; conditions: 125 μM, 1 h 37°C, untreated control 16242
HIV-1 virus particles [6] = experiment: Virion-associated p24 of pre-treated, compound-cleared virus (ELISA); conditions: compound-cleared HIV-1 virus stock
HIV-1 virus particles [7] = experiment: Virion-associated genomic RNA of pre-treated virus (RT-qPCR, Northern blot); conditions: compound-cleared HIV-1 virus stock, RT-qPCR or Northern blot
NCp7(11-55) = experiment: Zinc ejection monitored by Trp37 intrinsic fluorescence; format: biochemical, HIV-1
Experimental: Ejection of 50% of the zinc is observed in less than 5 minutes (Figure 4C).
As a reference, NCp7(11-55) was treated with 1 mM EDTA, a well known zinc chelator (triangle). […] (B) Time-dependent zinc ejection from NCp7(11-55). […] The data points (stars) corresponded to the fluorescence intensity at the maximum emission wavelength from panel B. Solid line represents a double-exponential fit to the data. (D) Zinc ejection from NCp7(11-55) in the presence of an excess of zinc. Emission spectra of the NCp7(11-55) (1 μM) in the presence of an excess of 100 μM zinc (triangle). […] The emission spectrum of NCp7(11-55) incubated with 1 mM EDTA (triangle) for one hour is given as a reference.
The NC(11-55) peptide was synthesized by solid phase peptide synthesis on a 433A synthesizer (ABI, Foster City, CA), as previously described. The lyophilized peptide was dissolved in water, and its concentration was determined using an extinction coefficient of 5,700 M^–1 x cm^–1 at 280 nm. Next, 2.5 molar equivalents of ZnSO4 were added to the peptide and pH was raised to its final value, by adding buffer. The increase of pH was done only after zinc addition to avoid oxidization of the zinc-free peptide.
Absorption spectra were recorded on a Cary 400 spectrophotometer. Fluorescence spectra were recorded at 20°C on a Fluorolog spectrofluorometer (Horiba, Jobin-Yvon), equipped with a thermostated cell compartment. Excitation wavelength was 295 nm and 520 nm, for NC(11-55) and Rh6G-5^′-cTAR-3^′-Dabcyl, respectively. The spectra were corrected for dilution and buffer fluorescence. The protein spectra were additionally corrected for screening effects due to the zinc ejecting agent, using: […]

NC(11-55) = experiment: Inhibition of NC(11-55)-induced destabilization of cTAR (Rh6G-cTAR-Dabcyl fluorescence); format: biochemical, HIV-1
Experimental: The NCp7-induced destabilization of cTAR can be sensitively monitored by using the doubly labeled Rh6G-5^′-cTAR-3^′-Dabcyl derivative.
(A) Emission spectra of Rh6G-cTAR-Dabcyl (0.1 μM) recorded in the absence (circle) or in the presence of NCp7(11-55) (1 μM) (square). […] Excitation wavelength was 520 nm. […] Excitation wavelength was 520 nm.
An extinction coefficient at 260 nm of 521,910 M^–1 x cm^–1 was used for cTAR. All experiments were performed at 20°C in 25 mM Tris–HCl, pH 7.5, 30 mM NaCl, and 0.2 mM MgCl2[28].

[8] = tested on: HIV-1 IIIB chronically-infected HuT-78 cells; experiment: Gag processing in virions from HIV-1 IIIB chronically-infected HuT-78 cells (western blot); format: cell-based; conditions: HuT-78/IIIB cells treated 43 hours; WDO-217 50, 25 μM; ritonavir 2.7 μM; SRR-SB3 75, 15 μM
Experimental: Recently, it has been shown that this new mechanism involves acetylation of the NCp7 region of Gag, thereby blocking Gag processing.
HIV-1 IIIB virions from persistently infected HuT-78 cells treated with different concentrations of compound were analysed by gel electrophoresis and immunoblotted with antibody against capsid.
Chronically-infected HIV-1 IIIB HuT-78 cells (HuT-78/IIIB) were washed four times with PBS to remove all free virions before treatment and 2 × 10^5 cells were resuspended in 1 ml compound-containing medium for 43 hours at 37°C. Then, virions were prepared from clarified supernatants (10 min at 300 g) by centrifugation at 36670 g for 2 hours at 4°C. Protein from lysed virions were separated by SDS-PAGE on a NuPage® Novex 4-12% Bis-Tris gel (Invitrogen) and transferred on a hydrophobic polyvinylidene difluoride (PVDF) membrane (Amersham Hybond™-P). The blot was blocked overnight at 4°C by 5% dry milk powder in Western blot wash solution (WBWS; PBS + 0.5% Tween 20), washed three times for 5 minutes with WBWS and incubated with a mouse anti-HIV-1 p24 antibody (1:5000) from Abcam. The blot was then washed three times for 5 minutes with WBWS and incubated for 1 h with a goat anti-mouse IgG-HRP secondary antibody (1:2500) from Santa Cruz Biotechnology. […]

VZV = experiment: Activity against replication of non-retroviruses; format: cell-based
RSV = experiment: Activity against replication of non-retroviruses; format: cell-based
[9] = MTT-based viability assay in Jurkat cells; conditions: human
HIV-1 IIIB [10] = experiment: Virucidal assay: virus pre-incubated with compound, diluted, titrated on MT-4 cells; conditions: for CCID50/ml HIV-1 IIIB: no drug 1 × 10^6
[11] = 10 μM compound, 1 μM NCp7(11-55)
[12] = 10 μM compound, 1 μM NC(11-55), 0.1 μM cTAR

Cn1sc(=N)nc1-c1ccccc1 [WDO-217, 2-methyl-3-phenyl-2H-[1,2,4]thiadiazol-5-ylideneamine]
EC50 (HIV-1 IIIB [1]; Human immunodeficiency virus 1, IIIB, MT4, 120 h): 5 ± 3 µM
EC50 (HIV-1 IIIB [1]): 7.9 ± 3.3 µM
EC50 (HIV-2 ROD [2]): 2.3 ± 0.3 µM
EC50 (SIV Mac251): 5.3 ± 1.5 µM
EC50 (SIV Mac251; Simian immunodeficiency virus, MT4, 120 h): 5 ± 1 µM
CC50 at 5 days [3]: ~72 µM
EC50 (HIV-2 ROD [4]): 15 ± 6.7 µM
CC50 [5]: 94 ± 15 µM
EC50 (NL4.3/WT): 0.9 ± 0.05 µM
EC50 (AZTR HIV-1 strain): 1.5 ± 0.6 µM
CCID50/ml ETH2220 subtype C (ETH2220 subtype C): 2558 CCID50/ml
CCID50/ml BZ163 subtype F (BZ163 subtype F): 2558 CCID50/ml
virus-associated p24 core protein after treatment (HIV-1 virus particles [6]): did not affect
viral genomic RNA content after treatment (HIV-1 virus particles [7]): clear decrease
time to complete zinc ejection (NCp7(11-55); [11]): 35 min
time to ejection of 50% of the zinc (NCp7(11-55); [11]): less than 5 minutes
zinc ejection (decrease of Trp37 fluorescence, same as 1 mM EDTA) (NCp7(11-55); 10-fold excess (10 μM), 1 h pre-incubation): efficiently ejects zinc
time to 50% inhibition of NC(11-55)-induced cTAR destabilization (NC(11-55); [12]): less than 5 minutes
time to complete inhibition of NC(11-55)-induced cTAR destabilization (NC(11-55); [12]): 50 min
NC(11-55) ability to destabilize cTAR after preincubation (NC(11-55); molar ratio 10:1 compound to NC(11-55)): full loss
accumulation of unprocessed Gag polyprotein in progeny virus [8]: did not result in a drastic accumulation
activity against replication of VZV (VZV): inactive
activity against replication of RSV (RSV): inactive
CC50 [9]: 75 ± 11 µM
CCID50/ml HIV-1 IIIB (HIV-1 IIIB [10]; virus incubated 1 h 37°C with 0.2 μM): 5.4 × 10^6 CCID50/ml
CCID50/ml HIV-1 IIIB (HIV-1 IIIB [10]; virus incubated 1 h 37°C with 1 μM): 1.6 × 10^6 CCID50/ml
CCID50/ml HIV-1 IIIB (HIV-1 IIIB [10]; virus incubated 1 h 37°C with 5 μM): 1 × 10^6 CCID50/ml
CCID50/ml HIV-1 IIIB (HIV-1 IIIB [10]; virus incubated 1 h 37°C with 25 μM): 0 CCID50/ml
CCID50/ml HIV-1 IIIB (HIV-1 IIIB [10]; virus incubated 1 h 37°C with 625 μM): 0 CCID50/ml
Infectivity of pre-incubated HIV-1 virus (HIV-1 IIIB [10]; virus incubated at 26, 130 and 650 μM, 1 h 37°C): no longer able to infect cells
